Source: publication PMC9926234, “Iterative computational design and crystallographic screening identifies potent inhibitors targeting the Nsp3 macrodomain of SARS-CoV-2” (Proceedings of the National Academy of Sciences of the …, 2023)
Like-named read-outs stand apart in the source and are kept apart here.

What was measured:
[1] = tested on: SARS-CoV-2 NSP3 Mac1; experiment: Overall hit call (binding in crystallographic soaking or the HTRF-based binding assay)
Description: Supplement pnas.2212931120.sd01.xlsx, sheet "Compound Summary" | column: HIT*

[2] = target: T1, SARS-CoV-2 NSP3 Mac1 (Severe acute respiratory syndrome coronavirus 2, UniProt P0DTD1); format: binding; conditions: for Refined occupancy: ligand occupancy after refinement (phenix.refine); for binding to Mac1 in crystal soaking, result in words: soaks at 10 to 20 mM
[3] = target: T1, SARS-CoV-2 NSP3 Mac1; experiment: biochemical; format: binding; conditions: for IC50: read-out: IC50; for Ki: Ki estimation from HTRF-derived IC50, Cheng-Prusoff, peptide 400nM, Kd 2.68µM, read-out: Ki***
[4] = target: T1, SARS-CoV-2 NSP3 Mac1; format: binding; design: contains a conserved macrodomain enzyme (Mac1); conditions: for Spearman est (compound concentration vs apparent Tm): DSF dose responsiveness, 1 µM nsp3 mac1, adj p given
Procedure, shortened: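 Differential scanning fluorimetry using 5 µM Fluorescent Yellow dye in place of SYPRO Orange. Compounds run in triplicate at seven two-fold dilutions from 1,000 or 100 μM, with ΔTma taken against a DMSO control in the same plate region. Dose-response significance assessed by Spearman's coefficient between concentration and ΔTma.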

[5] = PanDDA event map, 1 minus background density correction, crystal soaking of Mac1
[6] = ligand modeled from this dataset, compound concentration 100 mM
[7] = true hit = binding in crystallographic soaking or the HTRF-based binding assay
[8] = PanDDA event map, 1-BDC of the hit dataset, crystal soak, compound concentration 100 mM

## O=C(O)Cc1ccc(CNC(=O)c2ccnc3ccsc23)cc1 [Z6625]
[1]
  HIT*: Y

## O=S1(=O)CC(CNc2ncnc3[nH]ccc23)C1 [SRH-0005]
[2]; [5]
  1-BDC: 0.09
[2]; [6]
  Modeled?: TRUE
[2]; crystal soaking of Mac1
  Refined occupancy: 18
[1]
  HIT*: Y

## COC(=O)C1(CO)CCN(c2ncnc3[nH]c4cc(F)ccc4c23)C1 (stereo not shown) [Z9556]
[1]
  HIT*: Y

## O=S1(=O)CCCC(Nc2ncnc3[nH]ccc23)C1 (stereo not shown) [SRH-0010]
[2]; PanDDA event map 1-BDC, crystal soak, Compound_concentration 100 mM, PanDDA run dmso_34 or nohits_35 per dataset
  1-BDC: 0.13
[2]; [5]
  1-BDC (PanDDA): 0.13
[2]; crystal soak, Compound_concentration 100 mM, Echo dispense 40 nl, PanDDA run dmso_34 or nohits_35 per dataset
  PanDDA hit?: TRUE
[2]; ligand modeled in this dataset, crystal soak, Compound_concentration 100 mM
  Modeled?: TRUE
[2]; crystal soaking of Mac1
  Refined occupancy: 26
[1]
  HIT*: Y

## O=C(O)c1csc(CCNC(=O)c2cc3[nH]cnc3cc2F)n1 [Z5740]
[2]; PanDDA event map background density correction, crystal soak, compound concentration 100 mM
  1-BDC: 0.1
[2]; [5]
  1-BDC (PanDDA): 0.1
[2]; ligand modeled in the crystal structure, crystal soak, compound concentration 100 mM
  Modeled?: TRUE
[2]; crystal soaking of Mac1
  Refined occupancy: 20
[1]
  HIT*: Y

## CC(Cc1ccco1)C(=O)N[C@@H](CC(=O)O)c1ccc2c(c1)OCO2 (stereo partly shown) [Z1877]
[1]
  HIT*: Y

## Cc1oc(C(N)=O)cc1S(=O)(=O)Nc1cnc(Cl)c(C#N)c1 [Z6746]
[1]
  HIT*: Y

## O=C1OCCN1C1CCN(c2ncnc3[nH]c4cc(F)ccc4c23)C1 (stereo not shown) [Z5107]
[1]
  HIT*: Y

## Cc1oc(C(N)=O)cc1S(=O)(=O)Nc1ccc(Br)c(C#N)c1 [Z6708]
[1]
  HIT*: Y

## CC(=O)Nc1nc(C)c(S(=O)(=O)Nc2ccc(C)c(C#N)c2)s1 [Z6707]
[1]
  HIT*: Y

## CC(C)NC(=O)Nc1ccc(C(=O)NC2c3cccc(O)c3CC2C(=O)O)cc1 (stereo not shown) [Z8539_0046]
[3]
  binding to Mac1 in the HTRF assay, result in words: did not substantially change binding affinity
  Ki: 0.7 µM
[3]; HTRF
  IC50: 0.8 µM
[2]; PanDDA 1-BDC value of the event, crystal soak, compound concentration 100 mM, per dataset
  1-BDC: 0.23
[2]; [5]
  1-BDC: 0.21
[2]; crystal soak, compound concentration 100 mM, per dataset
  PanDDA hit?: TRUE
[2]; ligand modeled from this dataset, compound concentration 100 mM, Echo dispense volume 40 or 80 nl
  Modeled?: TRUE
[2]; crystal soaking of Mac1
  Refined occupancy: 42
[2]; [7]
  HIT*: Y
[4]
  Spearman est (compound concentration vs apparent Tm): 0.49
[4]; maximal thermal upshift
  DSF max dTma: 6.41 ˚C

## Cc1[nH]c2ncnc(N3CCOC(CC(F)(F)F)C3)c2c1C (stereo not shown) [Z2051]
[3]; HTRF ADPr-peptide displacement from SARS-CoV-2 Mac1
  IC50: 137 µM
[3]; HTRF, several values in a cell are separate determinations
  IC50: 137 µM
[3]
  Ki: 119 µM
[2]; overall hit flag: binding in crystallographic soaking or the HTRF-based binding assay
  HIT*: Y
[2]
  binding to Mac1 in crystal soaking, result in words: not confirmed by X-ray crystallography
[4]
  Spearman est (compound concentration vs apparent Tm): 0.51
[4]; maximal thermal upshift vs DMSO control
  DSF max dTma: 0.51 °C

## O=C(O)CC1CN(c2ncnc3[nH]ccc23)CC2(CCC2)O1 (stereo not shown) [F6831]
[3]; HTRF
  IC50: 44.2 µM
[3]
  Ki: 38.5 µM
[2]
  binding to Mac1 in crystal soaking, result in words: not confirmed by X-ray crystallography
[2]; [7]
  HIT*: Y
[4]
  Spearman est (compound concentration vs apparent Tm): 0.94
[4]; maximal thermal upshift
  DSF max dTma: 2.21 ˚C

## Cc1c[nH]c2ncc(C(=O)N(C)c3nnn[nH]3)cc12 [R7335]
[3]; HTRF
  IC50: 42.2 µM
[3]
  Ki: 36.7 µM
[2]; [8]
  1-BDC: 0.26
[2]; [5]
  1-BDC (PanDDA): 0.2
[2]; [6]
  Modeled?: TRUE
[2]; crystal soaking of Mac1
  Refined occupancy: 40
[2]; [7]
  HIT*: Y
[4]
  Spearman est (compound concentration vs apparent Tm): 0.73
[4]; maximal thermal upshift
  DSF max dTma: 1.16 ˚C

## CO[C@@H]1CN(c2ncnc3[nH]c4cc(F)ccc4c23)C[C@@H](CO)O1 [Z8973]
[1]
  HIT*: Y

## O=C(CSc1nnn[nH]1)c1c[nH]c2ncc(Br)cc12 [R1104]
[3]; HTRF
  IC50: 55.3 µM
[3]
  Ki: 48.1 µM
[2]; [8]
  1-BDC: 0.3
[2]; [5]
  1-BDC: 0.27
[2]; crystal soaking of Mac1
  Refined occupancy: 54
[2]; [7]
  HIT*: Y
[4]
  Spearman est (compound concentration vs apparent Tm): 0.54
[4]; maximal thermal upshift
  DSF max dTma: 1.16 ˚C
